Measurements: the supplement of paper PMC10307832

Assays:
Test in all cases: relative viability (nuclei count vs DMSO), 5 days (fraction); higher = more cells survive
CX-5461 + Tozasertib = compound: Cc1cnc(CNC(=O)c2c(=O)c3ccc(N4CCCN(C)CC4)nc3n3c2sc2ccccc23)cn1 [CX-5461] + Cc1cc(Nc2cc(N3CCN(C)CC3)nc(Sc3ccc(NC(=O)C4CC4)cc3)n2)n[nH]1 [Tozasertib] (partner 0.1 µM)
Summary of the method: (§1)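 Values are medians from duplicate plates. Each reflects relative viability, defined as the nuclei count of treated wells over that of vehicle wells. Lung cancer cell lines in 1536-well plates were pin-tool dosed one day after seeding with one drug alone or with a fixed anchor-drug dose plus five library-drug doses (not always all listed) in √10 steps, then fixed, stained and imaged at 4× after 5 days.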

CX-5461 + Phenformin = compound: Cc1cnc(CNC(=O)c2c(=O)c3ccc(N4CCCN(C)CC4)nc3n3c2sc2ccccc23)cn1 [CX-5461] + N=C(N)NC(=N)NCCc1ccccc1 [Phenformin] (partner 250 µM)
Summary of the method: as §1

IMD-0354 + Bortezomib = compound: O=C(Nc1cc(C(F)(F)F)cc(C(F)(F)F)c1)c1cc(Cl)ccc1O [IMD-0354] + CC(C)C[C@H](NC(=O)[C@H](Cc1ccccc1)NC(=O)c1cnccn1)B(O)O [Bortezomib] (partner 0.002 µM)
Summary of the method: as §1

IMD-0354 + Lapatinib = compound: O=C(Nc1cc(C(F)(F)F)cc(C(F)(F)F)c1)c1cc(Cl)ccc1O [IMD-0354] + CS(=O)(=O)CCNCc1ccc(-c2ccc3ncnc(Nc4ccc(OCc5cccc(F)c5)c(Cl)c4)c3c2)o1 [Lapatinib] (partner 2 µM)
Summary of the method: as §1

Cell Line | relative viability (CX-5461 + Tozasertib; first compound 0.01 µM) | relative viability (CX-5461 + Tozasertib; first compound 0.03162 µM) | relative viability (CX-5461 + Tozasertib; first compound 0.1 µM) | relative viability (CX-5461 + Tozasertib; first compound 0.3162 µM) | relative viability (CX-5461 + Tozasertib; first compound 1 µM) | relative viability (CX-5461 + Phenformin; first compound 0.01 µM) | relative viability (CX-5461 + Phenformin; first compound 0.03162 µM) | relative viability (CX-5461 + Phenformin; first compound 0.1 µM) | relative viability (CX-5461 + Phenformin; first compound 0.3162 µM) | relative viability (CX-5461 + Phenformin; first compound 1 µM) | relative viability (IMD-0354 + Bortezomib; first compound 0.04 µM) | relative viability (IMD-0354 + Bortezomib; first compound 0.1265 µM) | relative viability (IMD-0354 + Bortezomib; first compound 0.4 µM) | relative viability (IMD-0354 + Bortezomib; first compound 1.265 µM) | relative viability (IMD-0354 + Bortezomib; first compound 4 µM) | relative viability (IMD-0354 + Lapatinib; first compound 0.04 µM) | relative viability (IMD-0354 + Lapatinib; first compound 0.1265 µM) | relative viability (IMD-0354 + Lapatinib; first compound 0.4 µM) | relative viability (IMD-0354 + Lapatinib; first compound 1.265 µM) | relative viability (IMD-0354 + Lapatinib; first compound 4 µM)
NCI-H2085 | 0.734 | 0.849 | 0.785 | 0.752 | 0.798 | 0.768 | 0.691 | 0.704 | 0.658 | 0.587 | 1.03 | 1.09 | 0.757 | 0.491 | 0.386 | 0.78 | 0.797 | 0.64 | 0.389 | 0.298
NCI-H2087 | 0.208 | 0.276 | 0.243 | 0.265 | 0.159 | 0.411 | 0.406 | 0.398 | 0.316 | 0.32 | 1.06 | 1 | 0.272 | 0.145 | 0.151 | 0.872 | 0.991 | 0.419 | 0.137 | 0.178
NCI-H2126 | 0.842 | 0.842 | 0.758 | 0.765 | 0.668 | 0.576 | 0.542 | 0.513 | 0.589 | 0.407 | 1.17 | 1.12 | 0.89 | 0.744 | 0.425 | 0.793 | 0.803 | 0.655 | 0.768 | 0.378
NCI-H2228 | 0.245 | 0.213 | 0.224 | 0.261 | 0.0867 | 0.327 | 0.204 | 0.184 | 0.26 | 0.0912 | 0.946 | 0.848 | 0.653 | 0.362 | 0.258 | 1.23 | 1 | 0.632 | 0.306 | 0.241
NCI-H2347 | 0.544 | 0.563 | 0.474 | 0.536 | 0.454 | 0.546 | 0.361 | 0.337 | 0.338 | 0.397 | 0.741 | 1.02 | 0.748 | 0.606 | 0.533 | 0.863 | 0.972 | 0.632 | 0.201 | 0.434
NCI-H2405 | 0.746 | 0.882 | 0.702 | 0.549 | 0.544 | 0.411 | 0.363 | 0.415 | 0.326 | 0.342 | 1.04 | 1.04 | 0.732 | 0.498 | 0.302 | 1.38 | 1.24 | 0.69 | 0.243 | 0.202
NCI-H3122 | 0.389 | 0.537 | 0.352 | 0.314 | 0.262 | 0.385 | 0.343 | 0.316 | 0.378 | 0.248 | 0.975 | 1.06 | 0.927 | 0.231 | 0.172 | 1.05 | 0.983 | 0.747 | 0.202 | 0.211
PC-3 [JPC-3] | 0.899 | 0.947 | 0.851 | 0.792 | 0.847 | 0.479 | 0.449 | 0.467 | 0.467 | 0.455 | 0.928 | 0.912 | 0.534 | 0.636 | 0.312 | 0.484 | 0.434 | 0.372 | 0.42 | 0.199
PC-14 | 0.71 | 0.642 | 0.618 | 0.293 | 0.492 | 0.761 | 0.511 | 0.499 | 0.229 | 0.319 | 1.12 | 0.802 | 0.354 | 0.443 | 0.114 | 0.291 | 0.384 | 0.197 | 0.347 | 0.109
RERF-LC-KJ | 0.449 | 0.516 | 0.287 | 0.509 | 0.245 | 0.448 | 0.457 | 0.292 | 0.41 | 0.386 | 1.15 | 1.17 | 0.875 | 0.489 | 0.254 | 0.863 | 0.981 | 0.507 | 0.355 | 0.265
SK-LU-1 | 0.33 | 0.339 | 0.247 | – | 0.189 | 0.615 | 0.545 | 0.397 | – | 0.229 | 1.17 | 1.1 | 0.645 | 0.418 | 0.304 | 1.07 | 0.851 | 0.376 | 0.47 | 0.27
SW 1573 | 0.183 | 0.161 | 0.147 | 0.172 | 0.166 | 0.421 | 0.369 | 0.151 | 0.303 | 0.121 | 1.38 | 0.96 | 0.479 | 0.563 | 0.132 | 1.07 | 1.25 | 0.362 | 0.628 | 0.14
